Assay results: patent EP3917907B1, “MODULATORS OF POTASSIUM ION CHANNELS AND USES THEREOF” (Universitá Degli Studi Di Salerno, priority 2019, dated 2020)

Tests used:
[1] = Solution stability (HPLC, extracellular solution, ambient temperature); format: physicochemical; details: percentage of degradation after 6 h at ambient temperature; 100 ppm in extracellular solution pH 7.4
Description: (§1) In order to study the solution stability and photostability of the potassium channel modulators object of the present invention, a stock solution of the proper analyte (1 mg/mL) in dimethylsulfoxide (DMSO) has been prepared. This solution has been then diluted to a concentration of 100 ppm using extracellular solution containing (in mM): 138 NaCl, 2 CaCl2, 5.4 KCl, 1 MgCl2, 10 glucose, and 10 HEPES, at pH 7.4, adjusted with NaOH. To measure solution stability, the diluted solutions have been maintained at ambient temperature for 6 h. To measure photostability, the diluted solutions have been irradiated for 6 h using a Oriel Sol3A Solar Simulator (Newport corporation, Irvine, CA, USA) with a 12x12 inches output beam. Aliquots of solution have been withdrawn after 6h and analyzed by HPLC using a Kinetex C18, 150 mm × 4.6 mm × 2.6 µm (Phenomenex, Bologna, Italy) as stationary phase and a mobile phase constituted by A: H2O/CH3CN (80:20) and B: CH3CN. Gradient elution has been performed from 20% to 90% of B in 7.50 minutes and from 90% to 20% of B in 1 minute. The pump flux has been set to 1.5 mL/min. Column has been thermostatted at 40°C during analysis. Results are espressed in Table 3 as percentage of degradation of the product calculated as ratio between the peak area of the analyte at time 0 (Pa0) and after 6h (Pa6) using the following formula: % degradation = (Pa0−Pa6)/Pa0 *100. [formula]

[2] = Photostability (HPLC, solar simulator irradiation); format: physicochemical; details: percentage of degradation after 6 h irradiation with solar simulator; 100 ppm in extracellular solution pH 7.4
Description: as §1

[3] = target: T1, Kv7.2 (Homo sapiens, UniProt O43526); test: Whole-cell patch-clamp on CHO cells transiently expressing Kv7.2; format: cell-based; details: CHO cells, mean±SEM, >1 activating, <1 inhibiting; for Idrug/Ictl at 0 mV: ratio of ramp-evoked Kv7.2 current amplitude in presence and absence of drug at 0 mV; for Idrug/Ictl at -40 mV: ratio of ramp-evoked Kv7.2 current amplitude in presence and absence of drug at -40 mV
T1 construct: expressed in transfected cells; host or cells: CHO cells (ATCC CRL-9618), transient transfection, pcDNA3.1(+)
Description: According to the experimental protocol, these plasmids were expressed individually or in combination (in particular of Kv7.2 and Kv7.3), together with a plasmid-expressing enhanced green fluorescent protein (Clontech, Palo Alto, CA) used as a transfection marker. Total cDNA in the transfection mixture was kept at 4 µg. CHO cells were grown in 100-mm plastic Petri dishes in Dulbecco's modified Eagle's medium containing 10% fetal bovine serum, nonessential amino acids (0.1 mM), penicillin (50 U/ml), and streptomycin ([…]) in a humidified atmosphere at 37°C with 5% CO2. The cells were plated on glass coverslips coated with poly-L-lysine, and transfected one day after plating with the appropriate cDNA using Lipofectamine 2000 (Life Technologies), according to the manufacturer's protocol.
Currents from CHO cells were recorded at room temperature (20-22°C) 24 hours after trasfection using the whole-cell configuration of the patch-clamp technique, with glass micropipettes of 3-5 MΩ resistance. During the recording, constant perfusion of extracellular solution was maintained. The extracellular solution contained (in mM): 138 NaCl, 2 CaCl2, 5.4 KCl, 1 MgCl2, 10 glucose, and 10 HEPES, at pH 7.4, adjusted with NaOH. The pipette (intracellular) solution contained (in mM): 140 KCl, 2 MgCl2, 10 EGTA, 10 HEPES, 5 Mg^2+-ATP, at pH 7.3-7.4, adjusted with KOH. Currents were recorded using an Axopatch-200A amplifier, filtered at 5 kHz, and digitized using a DigiData 1440A (Molecular Devices). The pCLAMP software (version 10.2, Molecular Devices) was used for data acquisition and analysis. To evaluate the activity of exemplary compounds on Kv7.2 (see Table 1), as well as on Kv7.1, Kv7.2/7.3, Kv7.3 and Kv7.4 channels for selected compounds (see Table 2), the cells were clamped at -80 mV and currents were elicited by 3-s voltage ramps from -80 mV to +20 mV in the presence and absence of each compound. […] The effects of drugs were expressed as shift in the ramp-voltage (ΔV) calculated at 20% of the maximal current (Miceli et al, Proc Natl Acad Sci U S A. 2013, 110(11):4386-91). Curves were fitted using the following equation: y=max/(1+x/EC50)n, where x is the drug concentration, n is the Hill coefficient and max is the maximal value achieved, as previously described (Ambrosino et al, Br J Pharmacol. 2013, 168(6):1430-1444). Data analysis and fit were performed using Sigmaplot (version 12.3).
Ramp-evoked Kv7.2 currents were analyzed by measuring the currents at -40 mV (a membrane potential value close to the activation threshold) and at 0 mV (a membrane potential value at which Kv7.2 conductance is largely saturated). In particular, -40 mV represents the threshold potential for spike initiation and 0 mV represents instead the membrane potential value at which maximal conductance of the channel is achieved.
In Table 1, the effect of exemplary compounds of the invention is expressed as the ratio between current amplitude in the presence (Idrug) and absence (Ictl) of the drug at these two membrane voltages. […]

Solution stability [1]	Photostability [2]	Idrug/Ictl at 0 mV [3]	Idrug/Ictl at -40 mV [3]	SMILES
A (degradation lower than 20%)	B (20%< degradation<40%)	–	–	O=C(Cn1ccc2cc(NS(=O)(=O)CC3CCCCC3)ccc21)c1ccc(Br)cc1 [N-(1-(2-(4-bromophenyl)-2-oxoethyl)-1H-indol-5-yl)-1-cyclohexylmethanesulfonamide]
C (degradation > 40%)	C (degradation > 40%)	1.16±0.07	1.49±0.28	CC1(C)[C@H]2CC[C@]1(CS(=O)(=O)Nc1ccc3c(c1)CCN3Cc1ccc(F)cc1)C(=O)C2 [1-((1R,4S)-7,7-dimethyl-2-oxobicyclo[2.2.1]heptan-1-yl)-N-(1-(4-fluorobenzyl)indolin-5-yl)methanesulfonamide]
C (degradation > 40%)	C (degradation > 40%)	2.37±0.58	3.2±0.20	O=S(=O)(Nc1ccc2c(c1)CCN2Cc1ccc(C(F)(F)F)cc1)C1CCCCC1 [N-(1-(4-(trifluoromethyl)benzyl)indolin-5-yl)cyclohexanesulfonamide]
B (20%< degradation<40%)	B (20%< degradation<40%)	1.87±0.22	1.91±0.44	CC1CC(C)CN(S(=O)(=O)Nc2ccc3c(c2)CCN3Cc2ccc(F)cc2)C1 (stereo not shown) [N-(1-(4-fluorobenzyl)indolin-5-yl)-3,5-dimethylpiperidine-1-sulfonamide]
A (degradation lower than 20%)	B (20%< degradation<40%)	0.64±0.14	1.15±0.28	O=S(=O)(Nc1ccc2c(c1)CCN2Cc1ccc(F)cc1)c1ccccc1 [N-(1-(4-fluorobenzyl)indolin-5-yl)benzenesulfonamide]
A (degradation lower than 20%)	A (degradation lower than 20%)	–	–	O=S(=O)(CC1CCCCC1)Nc1ccc2c(ccn2Cc2ccc(F)cc2)c1 [1-cyclohexyl-N-(1-(4-fluorobenzyl)-1H-indol-5-yl)methanesulfonamide]
B (20%< degradation<40%)	B (20%< degradation<40%)	–	–	COc1ccc(CN(C)c2ccc(NS(=O)(=O)C3CCCCC3)cc2)cc1 [N-(4-((4-methoxybenzyl)(methyl)amino)phenyl) cyclohexanesulfonamide]
A (degradation lower than 20%)	B (20%< degradation<40%)	–	–	Cc1cc2cc(NS(=O)(=O)C3CCCCC3)ccc2n1Cc1ccc(F)cc1N [N-(1-(2-amino-4-fluorobenzyl)-2-methyl-1H-indol-5-yl)cyclohexanesulfonamide]
A (degradation lower than 20%)	A (degradation lower than 20%)	–	–	O=S(=O)(Nc1cc(F)c2c(ccn2Cc2ccc(C(F)(F)F)cc2)c1)C1CCCCC1 [N-(7-fluoro-1-(4-(trifluoromethyl)benzyl)-1H-indol-5-yl) cyclohexanesulfonamide]
A (degradation lower than 20%)	A (degradation lower than 20%)	–	–	O=S(=O)(Nc1ccc2c(ccn2Cc2ccc(C(F)(F)F)cc2O)c1)C1CCCCC1 [N-(1-(2-hydroxy-4-(trifluoromethyl)benzyl)-1H-indol-5-yl)cyclohexanesulfonamide]
B (20%< degradation<40%)	C (degradation > 40%)	–	–	COc1ccc(CNc2ccc(NS(=O)(=O)C3CCCCC3)cc2)cc1 [N-(4-((4-methoxybenzyl)amino)phenyl) cyclohexanesulfonamide]
C (degradation > 40%)	C (degradation > 40%)	–	–	O=S(=O)(Nc1ccc2c(c1)CCN2Cc1ccc(F)cc1)C1CCCCC1 [N-(1-(4-fluorobenzyl)indolin-5-yl)cyclohexanesulfonamide]
A (degradation lower than 20%)	B (20%< degradation<40%)	–	–	Cc1cc2c(c(C)c1NS(=O)(=O)C1CCCCC1)CCN2Cc1ccc(C(F)(F)F)cc1 [N-(4,6-dimethyl-1-(4-(trifluoromethyl)benzyl)indolin-5-yl)cyclohexanesulfonamide]
B (20%< degradation<40%)	C (degradation > 40%)	–	–	COc1ccc([C@H](C)Nc2ccc(NS(=O)(=O)C3CCCCC3)cc2)cc1 [(S)-N-(4-((1-(4-methoxyphenyl)ethyl)amino)phenyl) cyclohexanesulfonamide]
A (degradation lower than 20%)	A (degradation lower than 20%)	–	–	O=C(Cc1ccc(Cl)cc1)n1ccc2cc(NS(=O)(=O)C3CCCCC3)ccc21 [N-(1-(2-(4-chlorophenyl)acetyl)-1H-indol-5-yl) cyclohexanesulfonamide]
A (degradation lower than 20%)	B (20%< degradation<40%)	–	–	CC(C)(C)CNC(=S)Nc1ccc2c(c1)CCN2Cc1ccc(F)cc1 [1-(1-(4-fluorobenzyl)indolin-5-yl)-3-neopentylthiourea]
B (20%< degradation<40%)	B (20%< degradation<40%)	–	–	O=S(=O)(Nc1cc(F)c2c(c1)CCN2Cc1ccc(C(F)(F)F)cc1)C1CCCCC1 [N-(7-fluoro-1-(4-(trifluoromethyl)benzyl)indolin-5-yl) cyclohexanesulfonamide]
A (degradation lower than 20%)	B (20%< degradation<40%)	–	–	Cc1c(NS(=O)(=O)C2CCCCC2)ccc2c1ccn2Cc1ccc(C(F)(F)F)cc1 [N-(4-methyl-1-(4-(trifluoromethyl)benzyl)-1H-indol-5-yl)cyclohexanesulfonamide]
B (20%< degradation<40%)	C (degradation > 40%)	–	–	COc1ccc([C@@H](C)Nc2ccc(NS(=O)(=O)C3CCCCC3)cc2)cc1 [(R)-N-(4-((1-(4-methoxyphenyl)ethyl)amino)phenyl) cyclohexanesulfonamide]
–	–	0.83±0.10	0.78±0.15	O=S(=O)(Nc1ccc(NCc2ccc(F)cc2)c(F)c1)C1CCCCC1 [N-(3-fluoro-4-((4-fluorobenzyl)amino)phenyl) cyclohexanesulfonamide]
B (20%< degradation<40%)	C (degradation > 40%)	–	–	CCc1cccc(S(=O)(=O)Nc2ccc(NCc3ccc(OC)cc3)cc2)c1 [3-ethyl-N-(4-((4-methoxybenzyl)amino)phenyl)benze nesulfonamide]
A (degradation lower than 20%)	A (degradation lower than 20%)	–	–	CCc1cn(Cc2ccc(C(F)(F)F)cc2)c2ccc(NS(=O)(=O)C3CCCCC3)cc12 [N-(3-ethyl-1-(4-(trifluoromethyl)benzyl)-1H-indol-5-yl) cyclohexanesulfonamide]
